Measurements as given in ChEMBL document CHEMBL1201862, “PubChem BioAssay data set” (2004).
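A five-concentration, 48-hour dose response in 96-well plates underlies each endpoint, interpolated linearly between surrounding concentrations. Abbreviation: GI50, concentration required for 50% inhibition of growth.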 The source made the active and inactive calls. Rule as the data show it: active = GI50 up to about 1.1 µM and inactive = higher.

Assays:
Test in all cases: growth of human tumour cells (NCI), 48 h
[1] = test system: NCI-H460
[2] = test system: MCF7
[3] = test system: TK-10
[4] = test system: NCI-H226
[5] = test system: SK-MEL-28
[6] = test system: SNB-75
[7] = test system: EKVX
[8] = test system: MDA-N
[9] = test system: OVCAR-5
[10] = test system: NCI-H23
[11] = test system: LOX IMVI
[12] = test system: SK-OV-3
[13] = test system: COLO 205
[14] = test system: 786-0
[15] = test system: OVCAR-8
[16] = test system: HT-29
[17] = test system: U-251
[18] = test system: A549
[19] = test system: K562
[20] = test system: SK-MEL-2

Measured: GI50

CC(C)CC(NC=O)C(=O)NC(Cc1ccccc1)NC(=O)CNC(=O)C(C)NC(=O)C(N)Cc1ccc(O)cc1 (stereo not drawn)
inactive: [1] > 100 µM | [2] > 100 µM | [3] > 100 µM | [4] > 100 µM | [5] > 100 µM | [6] > 100 µM | [7] > 100 µM | [8] > 100 µM | [9] > 100 µM | [10] > 100 µM | [11] > 100 µM | [12] > 100 µM | [13] > 100 µM | [14] > 100 µM | [15] > 100 µM | [16] > 100 µM | [17] > 100 µM | [18] > 100 µM | [19] > 100 µM

C=C(C(=O)OC)[C@H]1CC/C(C)=C/CC/C(C)=C/CC[C@@]2(C)O[C@@H]2C1
inactive: [2] 17 µM | [3] 21.5 µM | [4] 19.9 µM | [5] 34.6 µM | [6] 65.2 µM | [7] 18.7 µM | [8] 18.2 µM | [9] 23.4 µM | [10] 19.3 µM | [11] 15.5 µM | [12] 43.7 µM | [13] 15 µM | [14] 15.5 µM | [15] 13.8 µM | [16] 17.3 µM | [17] 20.1 µM | [18] 14.9 µM | [19] 11.9 µM | [20] 15.3 µM

C#CCCCCC#Cc1ccccc1C(=O)C=[N+]=[N-]
inactive: [1] > 100 µM | [2] > 100 µM | [3] > 100 µM | [4] > 100 µM | [5] > 100 µM | [6] 95.1 µM | [7] > 100 µM | [8] > 100 µM | [9] > 100 µM | [10] > 100 µM | [12] > 100 µM | [13] > 100 µM | [14] > 100 µM | [15] > 100 µM | [16] > 100 µM | [17] > 100 µM | [18] > 100 µM | [19] 39.8 µM | [20] > 100 µM

Cc1cc(C)c(-c2no/c(=N\S(=O)(=O)c3ccc(Cl)cc3)o2)c(C)c1
inactive: [1] > 100 µM | [2] 16.4 µM | [3] > 100 µM | [4] > 100 µM | [5] > 100 µM | [6] > 100 µM | [7] > 100 µM | [8] > 100 µM | [9] > 100 µM | [10] > 100 µM | [12] > 100 µM | [13] 41.4 µM | [14] > 100 µM | [15] > 100 µM | [16] > 100 µM | [17] > 100 µM | [18] > 100 µM | [19] 49.5 µM | [20] 34 µM

COc1nc(C)nc2c1ncn2Cc1ccccc1
inactive: [1] > 100 µM | [2] 58.9 µM | [3] > 100 µM | [4] > 100 µM | [5] > 100 µM | [6] > 100 µM | [7] 80.7 µM | [8] > 100 µM | [9] > 100 µM | [10] > 100 µM | [11] > 100 µM | [12] > 100 µM | [13] > 100 µM | [14] > 100 µM | [15] > 100 µM | [16] > 100 µM | [17] > 100 µM | [18] > 100 µM | [19] > 100 µM

Cc1nn2c(=O)c([N+](=O)[O-])c(/C=C/c3ccccc3)nc2s1
inactive: [1] 5.61 µM | [2] 1.61 µM | [3] 7.31 µM | [4] 3.07 µM | [5] 5.33 µM | [6] 2.93 µM | [7] 4.61 µM | [8] 2.4 µM | [9] 4.68 µM | [10] 11 µM | [11] 1.57 µM | [12] 7.33 µM | [13] 5.14 µM | [14] 4.52 µM | [15] 2.17 µM | [16] 3.04 µM | [17] 2.42 µM | [18] 5.46 µM | [19] 2.56 µM | [20] 3.1 µM

CCOC(=O)/C(=C\NC(N)=S)C(=O)c1ccccc1
inactive: [1] > 100 µM | [2] > 100 µM | [3] > 100 µM | [4] > 100 µM | [5] > 100 µM | [6] > 100 µM | [7] > 100 µM | [8] > 100 µM | [9] > 100 µM | [10] > 100 µM | [11] > 100 µM | [12] > 100 µM | [13] > 100 µM | [14] > 100 µM | [15] > 100 µM | [16] > 100 µM | [17] > 100 µM | [18] > 100 µM | [20] > 100 µM

COC(=O)CCN1CCN(CCO)CC1C (stereo not drawn)
inactive: [1] > 10 µM | [2] > 10 µM | [3] > 10 µM | [4] > 10 µM | [5] > 10 µM | [6] > 10 µM | [7] > 10 µM | [8] > 10 µM | [10] > 10 µM | [11] > 10 µM | [12] > 10 µM | [13] > 10 µM | [14] > 10 µM | [15] > 10 µM | [16] > 10 µM | [17] > 10 µM | [18] > 10 µM | [19] > 10 µM | [20] > 10 µM

C[C@H](C(=O)N1C(=O)O[C@@H](c2ccccc2)[C@H]1C)[C@H](c1ccccc1)N(Cc1ccccc1)OC(=O)c1ccccc1
inactive: [1] 30.4 µM | [2] 30.1 µM | [3] 90.6 µM | [4] 38.4 µM | [5] > 100 µM | [6] 29.9 µM | [8] 48.9 µM | [9] 68.1 µM | [10] 65.3 µM | [11] 45.3 µM | [12] 38.8 µM | [13] 38.5 µM | [14] 57.4 µM | [15] 37.5 µM | [16] 26.4 µM | [17] 31.9 µM | [18] 32.9 µM | [19] 31.6 µM | [20] 22.1 µM

O=C(O)CCC(c1ccccc1)(c1ccccc1)c1ccccc1
inactive: [1] 25.2 µM | [2] 17.7 µM | [3] 52.5 µM | [4] 88.5 µM | [5] 50.5 µM | [7] 36 µM | [8] 30.3 µM | [9] > 100 µM | [10] 34.4 µM | [11] 45.1 µM | [12] 31.9 µM | [13] 24.7 µM | [14] 62.2 µM | [15] 30.3 µM | [16] 36.1 µM | [17] 39 µM | [18] 28.9 µM | [19] 37.7 µM | [20] 22.9 µM

CC(=O)C(C(C)=O)[C@@H]1OC(C)(C)O[C@@H]1[C@H]1COC(C)(C)O1
inactive: [1] 61.5 µM | [2] 43.8 µM | [3] > 100 µM | [4] > 100 µM | [5] 60.3 µM | [7] 27.7 µM | [8] 23.3 µM | [9] 87.9 µM | [10] 34 µM | [11] 87.1 µM | [13] 43.5 µM | [14] 32.1 µM | [15] 40.6 µM | [16] 32.8 µM | [17] 42.8 µM | [18] > 100 µM | [19] 30.2 µM | [20] 28.5 µM

Cc1[nH]n(-c2nc(O)c(-c3ccccc3)c(=O)[nH]2)c(=O)c1CCO
inactive: [1] > 100 µM | [2] > 100 µM | [3] > 100 µM | [4] > 100 µM | [5] > 100 µM | [6] 54.5 µM | [7] > 100 µM | [8] > 100 µM | [9] > 100 µM | [10] > 100 µM | [12] > 100 µM | [13] > 100 µM | [14] > 100 µM | [15] > 100 µM | [16] > 100 µM | [17] > 100 µM | [18] > 100 µM | [19] > 100 µM | [20] > 100 µM

CC(C(=O)NCNC(=O)c1ccccc1)C(=O)Nc1ccccc1 (stereo not drawn)
inactive: [1] > 100 µM | [2] > 100 µM | [3] > 100 µM | [4] > 100 µM | [6] > 100 µM | [7] > 100 µM | [8] > 100 µM | [9] > 100 µM | [10] > 100 µM | [12] > 100 µM | [13] > 100 µM | [14] > 100 µM | [15] > 100 µM | [16] > 100 µM | [17] > 100 µM | [18] > 100 µM | [20] > 100 µM

C=C(C)[C@@H]1CC[C@]2(CO)CC[C@]3(C)[C@H](CC[C@@H]4[C@@]5(C)CC[C@H](O)C(C)(C)[C@@H]5CC[C@]43C)[C@@H]12 [BETULIN]
inactive: [1] 19.3 µM | [2] 19.9 µM | [3] 17.1 µM | [4] 39 µM | [5] 33.1 µM | [6] 12.7 µM | [7] 25.6 µM | [8] 45 µM | [9] 55.7 µM | [10] 94.8 µM | [11] 14.6 µM | [14] 13.6 µM | [15] 12.5 µM | [16] 20.6 µM | [17] 11.8 µM | [18] 9.35 µM | [19] 15.8 µM

CNC(=O)ON(C(C)=O)C(=O)NC [CARACEMIDE]
inactive: [1] 78.7 µM | [2] 51.5 µM | [3] 25.5 µM | [4] 95.1 µM | [5] 69.5 µM | [6] 70.3 µM | [8] 15.8 µM | [9] 126 µM | [10] 41.8 µM | [11] 33.7 µM | [12] 106 µM | [14] 11 µM | [15] 78.3 µM | [17] 82.8 µM | [18] 92.3 µM | [20] 26 µM
